In patent publication US10542989B2, “Synergistic dietary supplement compositions for enhancing physical performance and energy levels” (LAILA NUTRACEUTICALS, priority 2015, dated 2020):

How the values were obtained:
Swiss albino mice [1] = assay: Energy and endurance forced swim test (FST) with constant load; type: in vivo; details: for Activity during forced swimming compared to control group (in words): 10 minutes of forced swimming, day 21; for Average Velocity / Distance Travelled (mm) / Fast Swimming Time / Resting Time / Slow Swimming: oral, 21 days, 150 mg/kg (Caffeine 10 mg/kg), 10 min swim on day 21, Mean ± SEM
Procedure: The efficacy of the compositions LI12522F2, LI89032F3 and LI80020F3 for enhancing energy and endurance was further evaluated in an animal study. […] On day 21, one hour after the treatment the mice were forced to swim with a constant load (10% of its body weight attached to its tail) in an acrylic cylinder filled with water. This test was monitored for 10 minutes using the SMART video tracking system ([…]). Various swimming parameters were recorded and analyzed by smart software. […] Swiss albino mice were acclimatized for 5 days before initiation of the study. Healthy Swiss albino mice were selected and randomly divided (n=6) into different treatment groups. […] On day 21, one hour after the treatment the mice were forced to swim with a constant load (10% of its body weight attached to its tail) in an acrylic cylinder filled with water. This test was monitored for 10 minutes using the SMART video tracking system ([…]). Various swimming parameters were recorded and analyzed by smart software. Measured Swimming parameters include, resting time, slow moving time, fast moving time, total moving time, path length of swimming and average velocity.

Swiss albino mice [2] = assay: Grip strength measurement (grip strength meter); type: in vivo; details: oral, 150 mg/kg (Caffeine 10 mg/kg), Mean ± SEM
Procedure: Similarly, after 21 days of treatment, the grip strength of mice was measured by using Grip strength meter (UgoBasile, Italy). Animals were trained and habituated to the experimental environment and conditions for 5 days. Each mice was allowed to grasp the grasping bar and it was pulled back gently in a horizontal plane by tail with gradually increasing force till the pulling force overcomes the grip strength of the animal. The force applied at the moment when the mice leaves its grasp on the grasping bar was recorded as grip strength in grams.
After 21 days of treatment Grip strength of mice was measured by using Grip strength meter (UgoBasile, Italy). Animals were trained and habituated to the experimental environment and conditions for 5 days. Each mice was allowed to grasp the grasping bar and it was pulled back gently in a horizontal plane by tail with gradually increasing force till the pulling force overcomes the grip strength of the animal. The force applied at the moment when the mice leaves its grasp on the grasping bar was recorded as grip strength in grams. Three trials were conducted on each animal and average grip strength was calculated.

Cn1c(=O)c2c(ncn2C)n(C)c1=O [Caffeine]
Activity during forced swimming compared to control group (in words) (Swiss albino mice [1]): more active and energetic | Average Velocity (Swiss albino mice [1]): 49.80 | Distance Travelled (mm) (Swiss albino mice [1]): 28740.25 mm | Fast Swimming Time (Swiss albino mice [1]): 82.16 s | Resting Time (Swiss albino mice [1]): 399.64 s | Slow Swimming (Swiss albino mice [1]): 92.12 s | Average Grip Strength measured after 21 Days (Swiss albino mice [2]): 56.07 ± 10.37 grams

C[N+](C)(C)C[C@H](O)CC(=O)[O-] [L-Carnitine]
Activity during forced swimming compared to control group (in words) (Swiss albino mice [1]): more active and energetic | Average Velocity (Swiss albino mice [1]): 44.24 | Distance Travelled (mm) (Swiss albino mice [1]): 26197.58 mm | Fast Swimming Time (Swiss albino mice [1]): 67.64 s | Resting Time (Swiss albino mice [1]): 419.52 s | Slow Swimming (Swiss albino mice [1]): 104.92 s | Average Grip Strength measured after 21 Days (Swiss albino mice [2]): 39.20 ± 7.51 grams
